We go through 30 compounds from patent US10450318B2, “CXCR4 receptor antagonists” (BRISTOL-MYERS SQUIBB COMPANY, priority 2015, dated 2019).

This assay deals with T1, CXCR4 receptors (Homo sapiens, UniProt P61073).
T1 construct: expressing endogenous CXCR4 receptors; endogenous in cells; host or cells: CCRF-CEM (human T lymphoblast cells)
T1 sequence (P61073 whole entry): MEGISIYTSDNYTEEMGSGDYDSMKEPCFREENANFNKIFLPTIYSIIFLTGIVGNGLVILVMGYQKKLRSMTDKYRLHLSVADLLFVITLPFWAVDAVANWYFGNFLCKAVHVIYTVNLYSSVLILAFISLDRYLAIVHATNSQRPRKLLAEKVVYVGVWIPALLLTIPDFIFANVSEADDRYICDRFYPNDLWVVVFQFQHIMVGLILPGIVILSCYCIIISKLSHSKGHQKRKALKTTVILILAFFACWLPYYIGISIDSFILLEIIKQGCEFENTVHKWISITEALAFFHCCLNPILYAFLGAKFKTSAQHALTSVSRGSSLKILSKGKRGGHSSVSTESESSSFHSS
Put plainly: CXCR4-CEM calcium flux assay, antagonist mode (inhibition of SDF-1α-induced calcium flux). The note with it: inhibition of calcium flux induced by 4 nM SDF-1α in CCRF-CEM cells. The format is cell-based. The protocol: Exemplary compounds of the invention were tested for their ability to induce or inhibit calcium flux in CCRF-CEM cells. […] CXCR4-CEM Calcium Flux Assays. […] The cells were then equilibrated to room temperature for 30 minutes before assay. […] The serially diluted compounds were diluted to working concentrations with the same assay buffer to 0.5% DMSO. […] Activity of the compounds to induce calcium flux was monitored by FDSS in the “agonist mode” for 90 sec. For “antagonist mode” assessment, the cells are subsequently incubated for 25 min at room temperature. SDF-1α (R&D System Cat#350-NS/CF) was then added at a final concentration of 4 nM to stimulate the cells. Inhibition of SDF-1α-induced calcium flux was monitored by FDSS6000 for 90 sec. […] After correcting for background, EC50 values were determined. […] Inhibition data for the test compound over a range of concentrations was plotted as percentage inhibition of the test compound as compared to an internal control compound.
Background: Calcium flux is commonly read through the fluorescence of an indicator in the cells.
Consider `CN(Cc1cn2c(N3CCOCC3)nccc2n1)[C@H]1CCCc2cccnc21` [Example 9, (S)—N-Methyl-N-((5-morpholinoimidazo[1,2-c]pyrimidin-2-yl)methyl)-5,6,7,8-tetrahydroquinolin-8-amine], for which the IC50 stood at 25.5 µM. `[2H]C([2H])([2H])N1CCN(c2nccc3nc(CN(C)[C@H]4CCCc5cccnc54)cn23)CC1` [Example 17, (S)—N-Methyl-N-((5-(4-(methyl-d3)piperazin-1-yl)imidazo[1,2-c]pyrimidin-2-yl)methyl)-5,6,7,8-tetrahydroquinolin-8-amine]: the IC50 was 0.0037 µM.

For the compound `NCCCCN(Cc1cn2c(O)nccc2n1)[C@H]1CCCc2cccnc21` [Example 107, (S)-2-(((4-Aminobutyl)(5,6,7,8-tetrahydroquinolin-8-yl)amino)methyl)imidazo[1,2-c]pyrimidin-5-ol], the IC50 is 0.029 µM. As for `CN(Cc1cn2c(N3CCN(CC(F)(F)F)CC3)nccc2n1)[C@H]1CCCc2cccnc21` [Example 84, (S)-N-methyl-N-((5-(4-(2,2,2-trifluoroethyl)piperazin-1-yl)imidazo[1,2-c]pyrimidin-2-yl)methyl)-5,6,7,8-tetrahydroquinolin-8-amine], the concentration for half-maximal inhibition (IC50) is greater than 16 µM. Then `CN(Cc1cn2c(N3CC4CNC4C3)nccc2n1)[C@H]1CCCc2cccnc21` (stereo partly drawn) [Example 88, (8S)-N-((5-(3,6-diazabicyclo[3.2.0]heptan-3-yl)imidazo[1,2-c]pyrimidin-2-yl)methyl)-N-methyl-5,6,7,8-tetrahydroquinolin-8-amine], with 0.22 µM; and `CN(Cc1cn2c(N3CCN4CCOCC4C3)nccc2n1)[C@H]1CCCc2cccnc21` (single isomer, unassigned) [Example 92], with 0.29 µM. As for `CN(Cc1cn2c(N3CCNC(c4ccccc4)C3)nccc2n1)[C@H]1CCCc2cccnc21` (single isomer, unassigned) [Example 78], the IC50 was 0.011 µM.

On to `CN(Cc1cn2c(N3CCn4cnnc4C3)nccc2n1)[C@H]1CCCc2cccnc21` [Example 82, (S)-N-((5-(5,6-dihydro-[1,2,4]triazolo[4,3-a]pyrazin-7(8H)-yl)imidazo[1,2-c]pyrimidin-2-yl)methyl)-N-methyl-5,6,7,8-tetrahydroquinolin-8-amine], for which the IC50 was 3.78 µM. Regarding `CN(Cc1cn2c(N3CCN(CC4CCCC4)CC3)nccc2n1)[C@H]1CCCc2cccnc21` [Example 31, (S)-N-({5-[4-(cyclopentylmethyl)piperazin-1-yl]imidazo[1,2-c]pyrimidin-2-yl}methyl)-N-methyl-5,6,7,8-tetrahydroquinolin-8-amine], the IC50 is 0.17 µM. Consider `CN(Cc1cn2c(N3CCn4ccnc4C3)nccc2n1)[C@H]1CCCc2cccnc21` [Example 83, (S)-N-((5-(5,6-dihydroimidazo[1,2-a]pyrazin-7(8H)-yl)imidazo[1,2-c]pyrimidin-2-yl)methyl)-N-methyl-5,6,7,8-tetrahydroquinolin-8-amine], for which the IC50 was 0.15 µM. Regarding `CN(Cc1cn2c(N3CCN(CCO)CC3)nccc2n1)[C@H]1CCCc2cccnc21` [Example 11, (S)-2-(4-(2-((Methyl(5,6,7,8-tetrahydroquinolin-8-yl)amino)methyl)imidazo[1,2-c]pyrimidin-5-yl)piperazin-1-yl)ethanol], the half-inhibitory concentration (IC50) turned out to be 0.013 µM.

For `CN(Cc1cn2c(N3CCN[C@@H](CO)C3)nccc2n1)[C@H]1CCCc2cccnc21` [Example 85, ((R)-4-(2-((methyl((S)-5,6,7,8-tetrahydroquinolin-8-yl)amino)methyl)imidazo[1,2-c]pyrimidin-5-yl)piperazin-2-yl)methanol], the half-inhibitory concentration (IC50) came to 0.0017 µM. `CN(Cc1cn2c(N3CC4CCNC4C3)nccc2n1)[C@H]1CCCc2cccnc21` (stereo partly drawn) [Example 94, (8S)-N-((5-(hexahydropyrrolo[3,4-b]pyrrol-5(1H)-yl)imidazo[1,2-c]pyrimidin-2-yl)methyl)-N-methyl-5,6,7,8-tetrahydroquinolin-8-amine]: the half-inhibitory concentration (IC50) amounted to 0.065 µM. In the case of `COc1cc2nc(CN(C)[C@H]3CCCc4cccnc43)cn2c(N2CCN(C)CC2)n1` [Example 105, (S)—N-((7-Methoxy-5-(4-methylpiperazin-1-yl)imidazo[1,2-c]pyrimidin-2-yl)methyl)-N-methyl-5,6,7,8-tetrahydroquinolin-8-amine] it was 0.1 µM. Take `CN(Cc1cn2c(N3CCNCC3)nccc2n1)[C@H]1CCCc2cccnc21` [Example 5, (S)—N-Methyl-N-((5-(piperazin-1-yl)imidazo[1,2-c]pyrimidin-2-yl)methyl)-5,6,7,8-tetrahydroquinolin-8-amine]: the IC50 worked out at 0.0081 µM. For the compound `CN(Cc1cn2c(N3CCN(CCc4ccccc4)CC3)nccc2n1)[C@H]1CCCc2cccnc21` [Example 18, (S)-N-methyl-N-({5-[4-(2-phenylethyl)piperazin-1-yl]imidazo[1,2-c]pyrimidin-2-yl}methyl)-5,6,7,8-tetrahydroquinolin-8-amine], the IC50 was 0.014 µM.

For `CN(Cc1cn2c(N3CCN(S(C)(=O)=O)CC3)nccc2n1)[C@H]1CCCc2cccnc21` [Example 15, (S)—N-Methyl-N-((5-(4-(methylsulfonyl)piperazin-1-yl)imidazo[1,2-c]pyrimidin-2-yl)methyl)-5,6,7,8-tetrahydroquinolin-8-amine], the 50% inhibitory concentration (IC50) amounted to 0.75 µM. `CC(C)S(=O)(=O)N1CCN(c2nccc3nc(CN(C)[C@H]4CCCc5cccnc54)cn23)CC1` [Example 40, (S)-N-methyl-N-({5-[4-(propane-2-sulfonyl)piperazin-1-yl]imidazo[1,2-c]pyrimidin-2-yl}methyl)-5,6,7,8-tetrahydroquinolin-8-amine]: the 50% inhibitory concentration (IC50) was 14.4 µM. As for `CN(Cc1cn2c(N3CC4CCCNC4C3)nccc2n1)[C@H]1CCCc2cccnc21` (single isomer, unassigned) [Example 96], the IC50 worked out at 0.22 µM. Consider `CN(Cc1cn2c(N3CCNCC3)nccc2n1)[C@H]1CCOc2cccnc21` [Example 70, (S)—N-Methyl-N-((5-(piperazin-1-yl)imidazo[1,2-c]pyrimidin-2-yl)methyl)-3,4-dihydro-2H-pyrano[3,2-b]pyridin-4-amine], for which the IC50 came to 0.0042 µM. `CN(Cc1cn2c(N3CCN(CC4CCOC4)CC3)nccc2n1)[C@H]1CCCc2cccnc21` (stereo partly drawn) [Example 32, (S)-N-methyl-N-({5-[4-(oxolan-3-ylmethyl)piperazin-1-yl]imidazo[1,2-c]pyrimidin-2-yl}methyl)-5,6,7,8-tetrahydroquinolin-8-amine]: the IC50 was determined as 0.31 µM.

Turning to `COc1cc2nc(CN(C)[C@H]3CCCc4cccnc43)cn2c(N2CCNCC2)n1` [Example 104, (S)—N-((7-methoxy-5-(piperazin-1-yl)imidazo[1,2-c]pyrimidin-2-yl)methyl)-N-methyl-5,6,7,8-tetrahydroquinolin-8-amine], the IC50 was determined as 0.19 µM.

With `CN(Cc1cn2c(N3CC4CCNC4C3)nccc2n1)[C@H]1CCCc2cccnc21` (stereo partly drawn) [Example 93, (8S)-N-((5-(hexahydropyrrolo[3,4-b]pyrrol-5(1H)-yl)imidazo[1,2-c]pyrimidin-2-yl)methyl)-N-methyl-5,6,7,8-tetrahydroquinolin-8-amine], the IC50 came out at 0.027 µM. Regarding `CN(Cc1cn2c(N3CCN(Cc4nccs4)CC3)nccc2n1)[C@H]1CCCc2cccnc21` [Example 67, (S)-N-methyl-N-({5-[4-(1,3-thiazol-2-ylmethyl)piperazin-1-yl]imidazo[1,2-c]pyrimidin-2-yl}methyl)-5,6,7,8-tetrahydroquinolin-8-amine], the concentration for half-maximal inhibition (IC50) stood at 0.042 µM. Turning to `CN(Cc1cn2c(N3CCN(Cc4ccc(C(F)(F)F)cc4)CC3)nccc2n1)[C@H]1CCCc2cccnc21` [Example 64, (S)-N-methyl-N-{[5-(4-{[4-(trifluoromethyl)phenyl]methyl}piperazin-1-yl)imidazo[1,2-c]pyrimidin-2-yl]methyl}-5,6,7,8-tetrahydroquinolin-8-amine], the IC50 was 0.011 µM. As for `CN(Cc1cn2c(N3CCN(C4CCCCC4)CC3)nccc2n1)[C@H]1CCCc2cccnc21` [Example 23, (S)-N-{[5-(4-cyclohexylpiperazin-1-yl)imidazo[1,2-c]pyrimidin-2-yl]methyl}-N-methyl-5,6,7,8-tetrahydroquinolin-8-amine], the IC50 worked out at 0.77 µM. For the compound `CN(Cc1cn2c(N3CCN(CCCc4ccccc4)CC3)nccc2n1)[C@H]1CCCc2cccnc21` [Example 34, (S)-N-methyl-N-({5-[4-(3-phenylpropyl)piperazin-1-yl]imidazo[1,2-c]pyrimidin-2-yl}methyl)-5,6,7,8-tetrahydroquinolin-8-amine], the IC50 came out at 0.12 µM.

For `CN(Cc1cn2c(N3CCN(Cc4nccn4C)CC3)nccc2n1)[C@H]1CCCc2cccnc21` [Example 51, (S)-N-methyl-N-[(5-{4-[(1-methyl-1H-imidazol-2-yl)methyl]piperazin-1-yl}imidazo[1,2-c]pyrimidin-2-yl)methyl]-5,6,7,8-tetrahydroquinolin-8-amine], the IC50 is 0.006 µM. As for `CCOC(=O)CN1CCN(c2nccc3nc(CN(C)[C@H]4CCCc5cccnc54)cn23)CC1` [Example 48, ethyl 2-{4-[2-({methyl[(S)-5,6,7,8-tetrahydroquinolin-8-yl]amino}methyl)imidazo[1,2-c]pyrimidin-5-yl]piperazin-1-yl}acetate], the concentration for half-maximal inhibition (IC50) is 0.3 µM. Take `CN1CCN(c2nccc3nc(CN(C)[C@H]4CCCc5cccnc54)cn23)C[C@H]1CO` [Example 99, ((S)-1-methyl-4-(2-((methyl((S)-5,6,7,8-tetrahydroquinolin-8-yl)amino)methyl)imidazo[1,2-c]pyrimidin-5-yl)piperazin-2-yl)methanol]: the IC50 worked out at 0.027 µM.

The term IC50 denotes the concentration that gives 50% inhibition.
